PMC7987348, “Structural basis for human TRPC5 channel inhibition by two distinct inhibitors” (eLife, 2021)

Experiments:
TRPC5 [1] = system: TRPC5; design: method as in Richter et al., 2014; Zhou et al., 2017; Zhu et al., 2015; conditions: ref Richter et al., 2014; Zhou et al., 2017; Zhu et al., 2015; read-out: IC50 for inhibition of TRPC5; cited from earlier work
TRPC5 [2] = system: TRPC5; design: method as in Minard et al., 2019; conditions: ref Minard et al., 2019; read-out: EC50 as TRPC5 activator; cited from earlier work
[3] = biological target: the molecule itself; test: cryo-EM structure; purified hTRPC5(1-764) in GDN micelles with 100 uM Ca2+ plus 500 uM CMZ, 50 uM HC-070 or EA (EA not seen, 'apo'); graphene oxide grids; C4 symmetry imposed in refinement
[4] = biological target: the molecule itself; test: SEC; fluorescence-detection SEC (FSEC) of transfected HEK293F cells solubilised in 1% LMNG, 0.1% CHS in TBS (20 mM Tris-HCl pH 8.0, 150 mM NaCl), 4°C; Superose-6 Increase

For c1ccc(Cn2c(NCc3ccco3)nc3ccccc32)cc1 [AC1903], the IC50 (TRPC5 [1]) is given as 14.7 µM.

In the case of Cn1c(=O)n(CCCO)c(=O)c2c1nc(Oc1ccc(Cl)c(OC(F)(F)F)c1)n2Cc1ccc(Cl)cc1 [AM237], the EC50 (TRPC5 [2]) is listed as 0.015 to 0.02 µM.

B1: human TRPC5 residues 1-764 (hTRPC5_(1-764)), purified tetrameric channel (domain or fragment, UniProt Q9UL62 1-764, looked up)
chain: MAQLYYKKVNYSPYRDRIPLQIVRAETELSAEEKAFLNAVEKGDYATVKQALQEAEIYYNVNINCMDPLGRSALLIAIENENLEIMELLLNHSVYVGDALLYAIRKEVVGAVELLLSYRRPSGEKQVPTLMMDTQFSEFTPDITPIMLAAHTNNYEIIKLLVQKRVTIPRPHQIRCNCVECVSSSEVDSLRHSRSRLNIYKALASPSLIALSSEDPILTAFRLGWELKELSKVENEFKAEYEELSQQCKLFAKDLLDQARSSRELEIILNHRDDHSEELDPQKYHDLAKLKVAIKYHQKEFVAQPNCQQLLATLWYDGFPGWRRKHWVVKLLTCMTIGFLFPMLSIAYLISPRSNLGLFIKKPFIKFICHTASYLTFLFMLLLASQHIVRTDLHVQGPPPTVVEWMILPWVLGFIWGEIKEMWDGGFTEYIHDWWNLMDFAMNSLYLATISLKIVAYVKYNGSRPREEWEMWHPTLIAEALFAISNILSSLRLISLFTANSHLGPLQISLGRMLLDILKFLFIYCLVLLAFANGLNQLYFYYETRAIDEPNNCKGIRCEKQNNAFSTLFETLQSLFWSVFGLLNLYVTNVKARHEFTEFVGATMFGTYNVISLVVLLNMLIAMMNNSYQLIADHADIEWKFARTKLWMSYFDEGGTLPPPFNIIPSPKSFLYLGNWFNNTFCPKRDPDGRRRRRNLRSFTERNADSLIQNQHYQEVIRNLVKRYVAAMIRNSKTHEGLTEENFKELKQDISSFRYEVLDLLGNR
notes: human TRPC5 (transient receptor potential canonical 5), C-terminally truncated construct, residues 1-764; That this removes the GFP-MBP tag is surmised; also called apo hTRPC5; source: HEK293F, BacMam baculovirus infection, purified (MBP resin, H3C protease digestion, Superose-6 Increase SEC in GDN); not shown: GFP, N-terminal, cleaved; MBP, N-terminal, cleaved
In the case of B1, the “stoichiometry N” value [3] is reported as 4.

B2: GFP-MBP-tagged human TRPC5 residues 1-764 (hTRPC5_(1-764)) as screened by FSEC (domain or fragment, UniProt Q9UL62 1-764, looked up)
chain: MAQLYYKKVNYSPYRDRIPLQIVRAETELSAEEKAFLNAVEKGDYATVKQALQEAEIYYNVNINCMDPLGRSALLIAIENENLEIMELLLNHSVYVGDALLYAIRKEVVGAVELLLSYRRPSGEKQVPTLMMDTQFSEFTPDITPIMLAAHTNNYEIIKLLVQKRVTIPRPHQIRCNCVECVSSSEVDSLRHSRSRLNIYKALASPSLIALSSEDPILTAFRLGWELKELSKVENEFKAEYEELSQQCKLFAKDLLDQARSSRELEIILNHRDDHSEELDPQKYHDLAKLKVAIKYHQKEFVAQPNCQQLLATLWYDGFPGWRRKHWVVKLLTCMTIGFLFPMLSIAYLISPRSNLGLFIKKPFIKFICHTASYLTFLFMLLLASQHIVRTDLHVQGPPPTVVEWMILPWVLGFIWGEIKEMWDGGFTEYIHDWWNLMDFAMNSLYLATISLKIVAYVKYNGSRPREEWEMWHPTLIAEALFAISNILSSLRLISLFTANSHLGPLQISLGRMLLDILKFLFIYCLVLLAFANGLNQLYFYYETRAIDEPNNCKGIRCEKQNNAFSTLFETLQSLFWSVFGLLNLYVTNVKARHEFTEFVGATMFGTYNVISLVVLLNMLIAMMNNSYQLIADHADIEWKFARTKLWMSYFDEGGTLPPPFNIIPSPKSFLYLGNWFNNTFCPKRDPDGRRRRRNLRSFTERNADSLIQNQHYQEVIRNLVKRYVAAMIRNSKTHEGLTEENFKELKQDISSFRYEVLDLLGNR
notes: human TRPC5 (transient receptor potential canonical 5), C-terminally truncated construct, residues 1-764; Same construct as m1, but uncleaved and unpurified; It is detected by the fluorescence of its GFP tag in FSEC; source: HEK293F, transfected (PEI), solubilised in LMNG/CHS, in supernatant; not shown: GFP, N-terminal, kept; MBP, N-terminal, kept
With B2 the “stoichiometry N” value [4] was 4.
